The values below come from ChEMBL document CHEMBL1201862, “PubChem BioAssay data set” (2004).

Each structure is given as a SMILES string.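 Cells were grown in 96-well plates and exposed to each compound for 48 hours at five concentrations; endpoints were interpolated linearly between bracketing concentrations, or set to the highest concentration if not reached. The concentration for 50% growth inhibition is given as GI50.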 Calls of active or inactive are those of the source. No stated cut-off is given here; in the data, active = GI50 up to about 1.1 µM and inactive = higher. Where a SMILES comes first, the peptide text is derived from it. [ ]: non-standard residue; d: D form. Phe(4-Cl) = N[CH](Cc1ccc(Cl)cc1)C(=O)O

Common to all, as to assay: NCI tumour cell line growth inhibition, 48 h
In assay [1] the test system is A498.
In assay [2] the test system is CAKI-1.
Assay [3] relates to CCRF-CEM.
The subject of assay [4] is HCC 2998.
In assay [5] the test system is HCT-15.
The test system of assay [6] is LOX IMVI.
For assay [7], the system named is Malme-3M.
The test system of assay [8] is NCI-H23.
Assay [9] concerns OVCAR-3.
The test system of assay [10] is OVCAR-4.
Assay [11] has as its system SF-539.
For assay [12], the system named is SK-MEL-2.
For assay [13], the system named is SK-MEL-5.
The test system of assay [14] is SNB-19.
Assay [15] concerns U-251.
In assay [16] the test system is UACC-62.
The test system of assay [17] is SNB-75.

Turning to `CC1=NN(C(=O)c2ccc(Cl)cc2)C(=O)/C1=C/c1ccc(O)cc1`, the GI50 in assay [1] was > 100 µM (inactive); in assay [2], > 100 µM (inactive); in [3] it was > 100 µM (inactive); in assay [4], > 100 µM (inactive); in assay [5], over 100 µM; in assay [6], > 100 µM (inactive). Besides, the GI50 in assay [7], in assay [8], in [9], in [10], in assay [11] and in assay [12] was > 100 µM (inactive) throughout. Moreover, the GI50 in assay [13], in assay [14], in assay [15] and in assay [16] was > 100 µM (inactive) throughout.
For the molecule `COc1ccc2c(c1)NC1(O)c3ccccc3C(=O)C21O` (stereo unspecified), the GI50 in [1], in assay [2], in assay [3], in assay [6], in assay [7] and in assay [8] was > 100 µM (inactive) in each case. The GI50 in assay [9], in assay [11], in [13], in [14], in assay [17] and in assay [15] was > 100 µM (inactive) in each case. Moreover, the GI50 in assay [16] was > 100 µM (inactive).
With `CCCCC#COP(=O)(OCC)OCC`, the GI50 is > 100 µM (inactive) in assay [1]; > 100 µM (inactive) in [2]; > 100 µM (inactive) in assay [3]; > 100 µM (inactive) in [4]; over 100 µM in [5]; > 100 µM (inactive) in assay [6]. In addition, the GI50 in assay [7], in assay [8], in [9], in assay [10], in [11] and in assay [12] was > 100 µM (inactive) in each case. The GI50 in [13], in assay [14], in [15] and in assay [16] was > 100 µM (inactive) throughout.
Turning to `COC(=O)C1(F)C(=O)NC(=O)NC1OC` (stereo unspecified), the GI50 in assay [1] is > 100 µM (inactive); in assay [2], 83.9 µM (inactive); in [3], 3.08 µM (inactive); in assay [5], 22.9 µM; in assay [6] it was 11.9 µM (inactive); in assay [7], 34.9 µM (inactive). The GI50 is 30.3 µM (inactive) in [8]; 94.2 µM (inactive) in [9]; > 100 µM (inactive) in assay [10]; 2.58 µM (inactive) in assay [11]; > 100 µM (inactive) in [12]; 9.84 µM (inactive) in assay [13]. For the same molecule, the GI50 in [14] was > 100 µM (inactive); in [17] it was 39.2 µM (inactive); in assay [15], 24.5 µM (inactive); in assay [16] it was 18.6 µM (inactive).
Turning to `COC(=O)CCC(NC(=S)N/N=C/c1ccco1)C(=O)OC` (stereo unspecified), the GI50 in assay [1] was > 100 µM (inactive); in assay [3], > 100 µM (inactive); in assay [4] it was > 100 µM (inactive); in [5], over 100 µM; in [6], > 100 µM (inactive); in assay [7] it was > 100 µM (inactive). For the same molecule, the GI50 in assay [8], in assay [9], in assay [10], in assay [11], in assay [12] and in [13] was > 100 µM (inactive) each time. Moreover, the GI50 in assay [14], in assay [17], in assay [15] and in [16] was > 100 µM (inactive) throughout.
Regarding `O=c1c2ccc(Br)cc2nc(-c2ccccc2)n1NC1OC(CO)C(O)C(O)C1O` (stereo unspecified), the GI50 in assay [1] was > 100 µM (inactive); in [2], > 100 µM (inactive); in assay [3] it was 72.9 µM (inactive); in assay [4], > 100 µM (inactive); in [5], over 100 µM; in assay [7], > 100 µM (inactive). Also, the GI50 in assay [8], in assay [9], in assay [10], in assay [11], in [12] and in assay [13] was > 100 µM (inactive) each time. Moreover, the GI50 in assay [14], in assay [17], in assay [15] and in assay [16] was > 100 µM (inactive) in each case.
`COC1=CC2(C=CC1=O)c1cc(OC)c(OC)cc1CCN2C(=O)c1ccccc1` (stereo unspecified): the GI50 in assay [1] was > 100 µM (inactive); in assay [2], > 100 µM (inactive); in assay [3] it was > 100 µM (inactive); in assay [4], > 100 µM (inactive); in [5], over 100 µM; in assay [6], > 100 µM (inactive). For the same molecule, the GI50 in assay [7], in assay [8], in assay [9], in [11], in assay [13] and in assay [14] was > 100 µM (inactive) throughout. The GI50 in assay [17], in assay [15] and in [16] was > 100 µM (inactive) each time.
Consider `Cc1ccc2c(c1)C(c1cccc3ccccc13)OC2=O` (stereo unspecified), for which the GI50 in assay [1] was 26 µM (inactive); in assay [2], > 100 µM (inactive); in assay [3], > 100 µM (inactive); in assay [4], > 100 µM (inactive); in assay [5] it was over 100 µM; in assay [6] it was > 100 µM (inactive). Also, the GI50 in assay [7] was 51.6 µM (inactive); in assay [8], 75.9 µM (inactive); in assay [9], > 100 µM (inactive); in [10] it was 35 µM (inactive); in assay [12], > 100 µM (inactive); in assay [13], 31.4 µM (inactive). For the same molecule, the GI50 in assay [14] was 64.7 µM (inactive); in assay [17], 36.4 µM (inactive); in [15] it was 58.2 µM (inactive); in assay [16] it was > 100 µM (inactive).
As to `CCOC(=O)c1c(-c2ccccc2)oc(-c2ccccc2)c1C(=O)OCC`, the GI50 in assay [1] was 60.7 µM (inactive); in [3] it was 41.1 µM (inactive); in [4], 67.1 µM (inactive); in assay [6], > 100 µM (inactive); in assay [7] it was > 100 µM (inactive); in assay [8] it was 89.3 µM (inactive). Moreover, the GI50 is > 100 µM (inactive) in [9]; > 100 µM (inactive) in [11]; 94.2 µM (inactive) in assay [12]; 56.5 µM (inactive) in assay [13]; > 100 µM (inactive) in [14]; > 100 µM (inactive) in assay [17]. The GI50 in assay [15] and in [16] was > 100 µM (inactive) in each case.
Regarding `COC(=O)C1=C(c2ccc(Cl)cc2)C(O)NC(NN)=N1` (stereo unspecified), the GI50 was > 100 µM (inactive) in assay [2]; > 100 µM (inactive) in assay [3]; > 100 µM (inactive) in assay [4]; over 100 µM in [5]; > 100 µM (inactive) in assay [6]; > 100 µM (inactive) in [7]. In addition, the GI50 in assay [8], in assay [9], in [10], in assay [11], in [12] and in assay [13] was > 100 µM (inactive) throughout. The GI50 in assay [14], in assay [15] and in assay [16] was > 100 µM (inactive) each time.
`CCCCCCCC1(c2ccc(N)cc2)CCC(=O)NC1=O` (stereo unspecified): the GI50 is 27.4 µM (inactive) in [2]; > 10 µM (inactive) in [3]; 29.8 µM (inactive) in assay [4]; 36.8 µM in assay [5]; 33 µM (inactive) in assay [6]; 28.1 µM (inactive) in assay [7]. In addition, the GI50 in [8] was 38.3 µM (inactive); in assay [9], 22.6 µM (inactive); in [10] it was 28.1 µM (inactive); in assay [12] it was 35.8 µM (inactive); in assay [13], 20.7 µM (inactive); in [14], 47.4 µM (inactive). Besides, the results for the GI50 in assay [17] and in assay [16] were 22.5 µM (inactive) and 26.7 µM (inactive), respectively.
As for `COC(=N)c1csc(C2OC(CO)C(O)C2O)n1` (stereo unspecified), the GI50 was > 100 µM (inactive) in assay [1]; > 100 µM (inactive) in [2]; 86.5 µM (inactive) in [3]; > 100 µM (inactive) in assay [4]; over 100 µM in assay [5]; > 100 µM (inactive) in assay [6]. For the same molecule, the GI50 in assay [7], in assay [8], in assay [9], in assay [10], in [11] and in assay [12] was > 100 µM (inactive) each time. The GI50 in [14], in assay [15] and in assay [16] was > 100 µM (inactive) throughout.
As to `CC(O)C(NC(=O)C(Cc1ccccc1)NC(=O)C(NC(=O)C(CCCCN)NC(=O)C(Cc1c[nH]c2ccccc12)NC(=O)C(Cc1ccc(O)cc1)NC(=O)C(Cc1ccc(Cl)cc1)NC(=O)C(N)Cc1ccccc1)C(C)O)C(N)=O` (stereo unspecified) (H-F[Phe(4-Cl)]YWKTFT-NH2; configuration not given here), the GI50 in assay [1] is 18.8 µM (inactive); in [2], 21.2 µM (inactive); in assay [3] it was 15.8 µM (inactive); in [4], 25.4 µM (inactive); in assay [5], 17.9 µM; in [8], 19.8 µM (inactive). For the same molecule, the GI50 in [9] was 17.4 µM (inactive); in [10], 23.9 µM (inactive); in [11], 20 µM (inactive); in assay [12], 19.9 µM (inactive); in [14] it was 18.4 µM (inactive); in assay [17], 21 µM (inactive). For the same molecule, the GI50 was 18.7 µM (inactive) in assay [15] and 19.1 µM (inactive) in assay [16].
